Two compounds from patent publication US11905265B1, “3,4-dimethoxy-n′-(2-(5-phenyl-1,3,4-oxadiazol-2ylthio)acetoxy)benzimidamide as an antimicrobial compound” (KING FAISAL UNIVERSITY, priority 2023, dated 2024) can be followed below.

Type in all cases: cell-based
The subject of one experiment is Bacillus cereus. Description: Agar plate disc-diffusion, antibacterial activity (inhibition zone). The following applies: nutrient agar, 37° C., 48 hours. On the procedure: (§1) The agar plate disc-diffusion method was applied. […] The discs were then placed onto the surface of agar plates (nutrient agar for bacteria and Sabouraud's dextrose agar for fungi) seeded with the test organism. Each plate contained 15 mL of the agar medium, previously seeded with 0.2 mL of the broth culture of each organism pregrown for 18 hours. The plates were incubated at 37° C. for 48 hours, and 72 hours for fungi. The inhibition zones were measured in milimeters. Discs impregnated with DMSO were used as a control, and its inhibition zone was subtracted from the tested compound actual inhibition zone.
(§2) The antibacterial activity was screened against gram positive bacteria namely Bacillus cereus and Staphylococcus aureus and gram-negative bacterial strains namely Pseudomonas aeruginosa and Escherichia coli, while the antifungal activity was screened against Aspergillus flavus and Chrysosporium keratinophilum as shown in Table 1 and 2.
On the technique in general: In agar diffusion tests the substance spreads into inoculated agar from a disc or well.

The test system of another experiment is Escherichia coli. The experiment is described as above. The following applies: nutrient agar, 37° C., 48 hours. On the procedure:
as §1, §2

A further experiment concerns Pseudomonas aeruginosa. The experiment is described as above. The following applies: nutrient agar, 37° C., 48 hours. On the procedure:
as §1, §2

The test system of the next experiment is Staphylococcus aureus. The experiment is described as above. As to conditions: nutrient agar, 37° C., 48 hours. On the procedure:
as §1, §2

A further experiment relates to Aspergillus flavus. The experiment is described as follows: Agar plate disc-diffusion, antifungal activity (inhibition zone). As to conditions: Sabouraud's dextrose agar, 72 hours. On the procedure:
as §1, §2

The test system of experiment [1] is Chrysosporium keratinophilum. The experiment is described as above. The following applies: Sabouraud's dextrose agar, 72 hours. On the procedure: as §1, §2
Setting [2] is: A = concentration of comp. = 10,000 uL.
The mark [3] stands for this setting: B = concentration of comp. = 30,000 uL.
[4] abbreviates: C = concentration of comp. = 50,000 uL.

With `COc1ccc(/C(N)=N/OC(=O)CSc2nnc(-c3ccccc3)o2)cc1OC` [Compound 3, 3,4-dimethoxy-N′-(2-(5-phenyl-1,3,4-oxadiazol-2-ylthio)acetoxy)benzimidamide], the inhibition zone is 25 mm in the experiment on Bacillus cereus (setting [2]); 29 mm with Bacillus cereus (setting [3]); 41 mm in the experiment with Bacillus cereus (setting [4]); 26 mm in the experiment on Escherichia coli (setting [2]); 35 mm in the experiment on Escherichia coli (setting [3]); 50 mm in the experiment with Escherichia coli (setting [4]). Also, the inhibition zone in the experiment on Pseudomonas aeruginosa (setting [2]) is reported as 20 mm; in the experiment on Pseudomonas aeruginosa (setting [3]) it was 24 mm; with Pseudomonas aeruginosa (setting [4]), 37 mm; in the experiment with Staphylococcus aureus (setting [2]), 24 mm; in the experiment with Staphylococcus aureus (setting [3]) it was 27 mm; in the experiment on Staphylococcus aureus (setting [4]), 43 mm. In addition, the inhibition zone is 23 mm in the experiment with Aspergillus flavus (setting [2]); 27 mm in the experiment with Aspergillus flavus (setting [3]); 40 mm with Aspergillus flavus (setting [4]); 24 mm in experiment [1] (setting [2]); 26 mm in experiment [1] (setting [3]); 40 mm in experiment [1] (setting [4]).

Turning to `O=C(O)c1cn(C2CC2)c2cc(N3CCNCC3)c(F)cc2c1=O` [Cip., ciprofloxacin], the inhibition zone with Bacillus cereus (setting [2]) worked out at 29 mm; with Bacillus cereus (setting [3]) it was 30 mm; in the experiment on Bacillus cereus (setting [4]) it was 42 mm; in the experiment with Escherichia coli (setting [2]) it was 30 mm; with Escherichia coli (setting [3]), 39 mm; in the experiment on Escherichia coli (setting [4]) it was 60 mm. The inhibition zone in the experiment on Pseudomonas aeruginosa (setting [2]) is reported as 29 mm; in the experiment with Pseudomonas aeruginosa (setting [3]), 30 mm; with Pseudomonas aeruginosa (setting [4]), 53 mm; in the experiment with Staphylococcus aureus (setting [2]) it was 43 mm; in the experiment on Staphylococcus aureus (setting [3]), 44 mm; in the experiment with Staphylococcus aureus (setting [4]), 53 mm. Further, the inhibition zone is given as 29 mm with Aspergillus flavus (setting [2]); 30 mm in the experiment on Aspergillus flavus (setting [3]); 42 mm with Aspergillus flavus (setting [4]); 29 mm in experiment [1] (setting [2]); 30 mm in experiment [1] (setting [3]); 53 mm in experiment [1] (setting [4]).
